# Values of other authors as cited in PubChem BioAssay AID1259409 (Chemical Carcinogenesis Research Information System (CCRIS), 2018).
# System: rodent chemically induced tumor inhibition, incidence and multiplicity
# Test: CCRIS tumor inhibitor studies
# Settings: Route [Inhibitor]: ORAL, Species: RAT
structure (smiles),measurement,setting,value
Cn1c(=O)c2c(ncn2C)n(C)c1=O,"tumour outcome (control, treated, inhibition, significance)","Carcinogen: 1,2-DIMETHYLHYDRAZINE, 540-73-8, Dose [Inhibitor]: 0, 600 MG/L IN DRINKING WATER FOR DURATION OF STUDY BEGINNING 7 D PRIOR TO CARCINOGEN TREATMENT (STUDY DURATION: 8 MO), Strain/Sex: BD6/MALE, Target Tissue: Type of Lesion: INTESTINE: TUMOR, Dose [Carcinogen]: 20 MG/KG BW 1/WK FOR 20 WK, Promoter: NONE USED","100%, 100%, 0%, not significant"
same,"tumour outcome (control, treated, inhibition, significance)","Carcinogen: 2-ACETYLAMINOFLUORENE, 53-96-3, Dose [Inhibitor]: 0, 0.1% IN DRINKING WATER FOR FIRST 12 WK (STUDY DURATION: 30 WK), Strain/Sex: ACI/MALE, Target Tissue: Type of Lesion: LIVER: HEPATOCELLULAR ADENOMA, Dose [Carcinogen]: 0.02% IN DIET FOR FIRST 12 WK","100%, 78%, 22%, not significant"
same,"tumour outcome (control, treated, inhibition, significance)","Carcinogen: 2-ACETYLAMINOFLUORENE, 53-96-3, Dose [Inhibitor]: 0, 0.1% IN DRINKING WATER FOR FIRST 12 WK (STUDY DURATION: 30 WK), Strain/Sex: ACI/MALE, Target Tissue: Type of Lesion: LIVER: HEPATOCELLULAR CARCINOMA, Dose [Carcinogen]: 0.02% IN DIET FOR FIRST 12 WK","44%, 22%, 50%, not significant"
same,"tumour outcome (control, treated, inhibition, significance)","Carcinogen: 2-ACETYLAMINOFLUORENE, 53-96-3, Dose [Inhibitor]: 0, 0.1% IN DRINKING WATER FOR FIRST 12 WK (STUDY DURATION: 30 WK), Strain/Sex: ACI/MALE, Target Tissue: Type of Lesion: SMALL INTESTINE: ADENOCARCINOMA, Dose [Carcinogen]: 0.02% IN DIET FOR FIRST 12 WK","9%, 17%, -89%, not significant"
same,"tumour outcome (control, treated, inhibition, significance)","Carcinogen: 2-ACETYLAMINOFLUORENE, 53-96-3, Dose [Inhibitor]: 0, 0.15% IN DRINKING WATER FOR FIRST 12 WK (STUDY DURATION: 30 WK), Strain/Sex: ACI/MALE, Target Tissue: Type of Lesion: LIVER: HEPATOCELLULAR ADENOMA, Dose [Carcinogen]: 0.02% IN DIET FOR FIRST 12 WK","100%, 63%, 37%, p<0.01"
same,"tumour outcome (control, treated, inhibition, significance)","Carcinogen: 2-ACETYLAMINOFLUORENE, 53-96-3, Dose [Inhibitor]: 0, 0.15% IN DRINKING WATER FOR FIRST 12 WK (STUDY DURATION: 30 WK), Strain/Sex: ACI/MALE, Target Tissue: Type of Lesion: LIVER: HEPATOCELLULAR CARCINOMA, Dose [Carcinogen]: 0.02% IN DIET FOR FIRST 12 WK","44%, 8%, 82%, p<0.02"
same,"tumour outcome (control, treated, inhibition, significance)","Carcinogen: 2-ACETYLAMINOFLUORENE, 53-96-3, Dose [Inhibitor]: 0, 0.15% IN DRINKING WATER FOR FIRST 12 WK (STUDY DURATION: 30 WK), Strain/Sex: ACI/MALE, Target Tissue: Type of Lesion: SMALL INTESTINE: ADENOCARCINOMA, Dose [Carcinogen]: 0.02% IN DIET FOR FIRST 12 WK","9%, 13%, -44%, not significant"
same,"tumour outcome (control, treated, inhibition, significance)","Carcinogen: 2-ACETYLAMINOFLUORENE, 53-96-3, Dose [Inhibitor]: 0, 0.2% IN DRINKING WATER FOR FIRST 12 WK (STUDY DURATION: 30 WK), Strain/Sex: ACI/MALE, Target Tissue: Type of Lesion: LIVER: HEPATOCELLULAR ADENOMA, Dose [Carcinogen]: 0.02% IN DIET FOR FIRST 12 WK","100%, 35%, 65%, p<0.001"
same,"tumour outcome (control, treated, inhibition, significance)","Carcinogen: 2-ACETYLAMINOFLUORENE, 53-96-3, Dose [Inhibitor]: 0, 0.2% IN DRINKING WATER FOR FIRST 12 WK (STUDY DURATION: 30 WK), Strain/Sex: ACI/MALE, Target Tissue: Type of Lesion: LIVER: HEPATOCELLULAR CARCINOMA, Dose [Carcinogen]: 0.02% IN DIET FOR FIRST 12 WK","44%, 5%, 89%, p<0.02"
same,"tumour outcome (control, treated, inhibition, significance)","Carcinogen: 2-ACETYLAMINOFLUORENE, 53-96-3, Dose [Inhibitor]: 0, 0.2% IN DRINKING WATER FOR FIRST 12 WK (STUDY DURATION: 30 WK), Strain/Sex: ACI/MALE, Target Tissue: Type of Lesion: SMALL INTESTINE: ADENOCARCINOMA, Dose [Carcinogen]: 0.02% IN DIET FOR FIRST 12 WK","9%, 10%, -11%, not significant"
same,"tumour outcome (control, treated, inhibition, significance)","Carcinogen: 2-AMINO-1-METHYL-6-PHENYL-1H-IMIDAZO[4,5-B]PYRID INE, 105650-23-5, Dose [Inhibitor]: 0, 0.1% IN DRINKING WATER FOR 52 WK (STUDY DURATION: 52 WK), Strain/Sex: F344/FEMALE, Target Tissue: Type of Lesion: MAMMARY GLAND: FIBROADENOMA, Dose [Carcinogen]: 0.02% IN THE DIET FOR 52 WK, Promoter: NONE USED","2/20 (10%), 0/20 (0%), 100%, not significant"
same,"tumour outcome (control, treated, inhibition, significance)","Carcinogen: 2-AMINO-1-METHYL-6-PHENYL-1H-IMIDAZO[4,5-B]PYRIDINE, 105650-23-5, Dose [Inhibitor]: 0, 0.1% IN DRINKING WATER FOR 52 WK (STUDY DURATION: 52 WK), Strain/Sex: F344/FEMALE, Target Tissue: Type of Lesion: MAMMARY GLAND: ADENOCARCINOMA, Dose [Carcinogen]: 0.02% IN THE DIET FOR 52 WK, Promoter: NONE USED","8/20 (40%), 2/20 (10%), 75%, p< 0.05"
same,"tumour outcome (control, treated, inhibition, significance)","Carcinogen: 2-AMINO-1-METHYL-6-PHENYLIMIDAZO[4,5-B]PYRIDINE [105650-23-5], Dose [Inhibitor]: 0.1% IN DRINKING WATER FOR 54 WK (STUDY DURATION: 54 WK), Strain/Sex: F344/DUCRJ/FEMALE, Target Tissue: Type of Lesion: COLON: ADENOMA OR ADENOCARCINOMA, Dose [Carcinogen]: 0.02% IN DIET FOR 54 WK (STUDY DURATION: 54 WK), Promoter: NONE","3/20 (15%), 15/20 (75%), -400%, p<0.01"
